The values below come from ChEMBL document CHEMBL5303573, “Mapping human microbiome drug metabolism by gut bacteria and their genes” (Nature, 2019).

Series [1] is described as follows: The drug is tested on Eggerthella lenta strain: ATCC25559 for biotransformation. The drug concentrations were measured before and after a 12-h incubation by liquid-chromatography-coupled mass spectrometry (LC–MS). The settings on record: 2 µM.
Series [2] in a line: The drug is tested on Odoribacter splanchnicus strain: fecal isolate for biotransformation. The drug concentrations were measured before and after a 12-h incubation by liquid-chromatography-coupled mass spectrometry (LC–MS). The settings on record: 2 µM.
A short description of series [3]: The drug is tested on Eubacterium rectale strain: ATCC33656 for biotransformation. The drug concentrations were measured before and after a 12-h incubation by liquid-chromatography-coupled mass spectrometry (LC–MS). To be noted: agathobacter rectalis, 2 µM.
The target of series [4] is T1, Acyltransferase 3 domain-containing protein (Phocaeicola dorei, UniProt B6W2J3).
T1 sequence (B6W2J3 whole entry): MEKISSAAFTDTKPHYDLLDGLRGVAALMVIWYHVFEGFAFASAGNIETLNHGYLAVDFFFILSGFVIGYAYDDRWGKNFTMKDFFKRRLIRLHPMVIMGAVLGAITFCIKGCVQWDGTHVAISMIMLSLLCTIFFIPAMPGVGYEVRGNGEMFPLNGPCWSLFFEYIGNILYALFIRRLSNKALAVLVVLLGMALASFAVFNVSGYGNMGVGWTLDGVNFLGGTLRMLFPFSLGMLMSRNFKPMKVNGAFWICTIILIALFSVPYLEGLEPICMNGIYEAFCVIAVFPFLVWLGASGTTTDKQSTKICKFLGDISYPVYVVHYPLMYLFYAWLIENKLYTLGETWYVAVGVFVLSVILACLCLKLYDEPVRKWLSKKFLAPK
Briefly: (§1) The drug is tested on Bacteroides dorei strain: DSM17855 for biotransformation. The drug concentrations were measured before and after a 12-h incubation by liquid-chromatography-coupled mass spectrometry (LC–MS). More on the design: dose 2 uM. The class given is ADME. The settings on record: 2 µM.

Series [5] addresses T2, Nitroreductase domain-containing protein (Phocaeicola dorei, UniProt B6VU18).
T2 sequence (B6VU18 whole entry): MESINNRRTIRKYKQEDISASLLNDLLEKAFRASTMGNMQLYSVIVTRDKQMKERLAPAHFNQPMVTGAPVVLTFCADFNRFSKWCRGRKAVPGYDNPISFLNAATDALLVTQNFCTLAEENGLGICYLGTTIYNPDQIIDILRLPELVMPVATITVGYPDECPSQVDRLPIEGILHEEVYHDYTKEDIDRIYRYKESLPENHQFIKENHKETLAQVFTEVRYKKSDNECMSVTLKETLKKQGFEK
Described as §1. In kind it is ADME. More on the design: dose 2 uM. The settings on record: 2 µM.

The target in series [6] is T3, SGNH hydrolase-type esterase domain-containing protein (Phocaeicola dorei, UniProt B6VTE7).
T3 sequence (B6VTE7 whole entry): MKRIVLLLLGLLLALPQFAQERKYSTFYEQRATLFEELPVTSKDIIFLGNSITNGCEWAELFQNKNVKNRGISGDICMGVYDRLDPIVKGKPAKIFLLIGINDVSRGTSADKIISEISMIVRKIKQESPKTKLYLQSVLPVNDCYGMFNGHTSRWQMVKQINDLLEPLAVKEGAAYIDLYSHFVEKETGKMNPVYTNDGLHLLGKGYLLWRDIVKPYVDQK
The description is as §1. In kind it is ADME. More on the design: dose 2 uM. The settings on record: 2 µM.

Series [7] has as its target T4, SGNH hydrolase-type esterase domain-containing protein (Phocaeicola dorei, UniProt B6W293).
T4 sequence (B6W293 whole entry): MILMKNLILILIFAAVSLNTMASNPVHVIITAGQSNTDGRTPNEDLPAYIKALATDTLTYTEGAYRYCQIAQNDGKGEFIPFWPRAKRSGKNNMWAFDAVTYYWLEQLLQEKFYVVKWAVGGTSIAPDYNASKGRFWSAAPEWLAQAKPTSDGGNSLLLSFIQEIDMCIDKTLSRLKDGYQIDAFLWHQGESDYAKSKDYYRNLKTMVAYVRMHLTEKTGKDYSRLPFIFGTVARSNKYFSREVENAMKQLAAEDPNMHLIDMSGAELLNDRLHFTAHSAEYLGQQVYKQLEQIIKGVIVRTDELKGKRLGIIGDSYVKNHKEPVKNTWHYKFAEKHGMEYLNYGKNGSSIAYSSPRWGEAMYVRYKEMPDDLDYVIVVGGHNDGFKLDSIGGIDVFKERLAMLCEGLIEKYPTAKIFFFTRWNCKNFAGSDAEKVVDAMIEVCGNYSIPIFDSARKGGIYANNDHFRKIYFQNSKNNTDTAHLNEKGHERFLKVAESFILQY
The series is described as §1. In kind it is ADME. Further details: dose 2 uM. To be noted: 2 µM.

The conditions of series [8]: anaerostipes sp., 12 h, 2 µM.
Description: The drug is tested on Anaerostipes sp. strain: fecal isolate for biotransformation. The drug concentrations were measured before and after a 12-h incubation by liquid-chromatography-coupled mass spectrometry (LC–MS)
The conditions of series [9]: victivallis vadensis, 12 h, 2 µM.
Description: The drug is tested on Victivallis vadensis strain: ATCC BAA-548 for biotransformation. The drug concentrations were measured before and after a 12-h incubation by liquid-chromatography-coupled mass spectrometry (LC–MS)

Turning to `C[C@]12CCC(=O)C=C1[C@@H]1C[C@@H]1[C@H]1[C@@H]3[C@@H]4C[C@@H]4[C@@]4(CCC(=O)O4)[C@@]3(C)CC[C@@H]12` [DROSPIRENONE], the “Bacterial Biotransformation” value in series [1] is reported as “Compound NOT metabolized”; in [2], “Compound metabolized”; in [3], “Compound NOT metabolized”; in series [4], “Compound NOT metabolized”; in series [5] it was “Compound NOT metabolized”; in series [6] it was “Compound NOT metabolized”. The “Bacterial Biotransformation” value in series [7], in series [8] and in series [9] was “Compound NOT metabolized” in each case.
